In the supplement of paper PMC9244889:
Counter-ions that a name gives are not always drawn.

Legend:
Vero E6 [1] = assay: cytotoxicity relative to untreated cell control; higher = more toxic; details: 72 h, assay detail: uninfected
Protocol: (§1)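 Vero E6 C1008 cells (2e4 cells/well) were treated with a 3-fold dilution series of each drug (monotherapy), with or without live SARS-CoV-2 (propagated original strain, 100 TCID50). After 72 h at 37 °C, viability was read with Viral ToxGlo (ATP luminescence). %Inhibition of virus-induced CPE and %Cytotoxicity (uninfected) were normalised to cell and virus controls. Triplicates. The paper excluded %Inhibition points with >25% cytotoxicity from its curve fits.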

Vero E6 [2] = assay: inhibition of SARS-CoV-2-induced cytopathic effect relative to cell and virus controls; higher = more antiviral protection; details: 72 h, virus: SARS-CoV-2 propagated original strain, 100 TCID50, assay detail: infected
Protocol: as §1

O=c1nc(NO)ccn1[C@@H]1O[C@H](CO)[C@@H](O)[C@H]1O [EIDD-1931]
Details	cytotoxicity, Vero E6 [1] [%]	inhibition of SARS-CoV-2-induced cytopathic effect, Vero E6 [2] [%]
56.45 pM	-9.83	-1.26
0.000169351 µM	-16.6	0.00675
0.000508053 µM	-20	0.0533
0.00152416 µM	-19.1	0.601
0.00457247 µM	-16.2	-0.506
0.0137174 µM	-14.9	-0.261
0.0411523 µM	-10.5	-0.787
0.123457 µM	-12.1	3.32
0.37037 µM	-7.1	13.2
1.11111 µM	-15.6	57.5
3.33333 µM	7.25	78.3
10 µM	25.9	70.6

CCc1c2c(nc3ccc(O)cc13)-c1cc3c(c(=O)n1C2)COC(=O)[C@]3(O)CC [SN-38]
Details	cytotoxicity, Vero E6 [1] [%]	inhibition of SARS-CoV-2-induced cytopathic effect, Vero E6 [2] [%]
56.45 pM	-12.2	-1.53
0.000169351 µM	-12.8	-0.815
0.000508053 µM	-9.63	-0.975
0.00152416 µM	-8.98	-2.92
0.00457247 µM	-9.11	-3.61
0.0137174 µM	-9.99	-6.1
0.0411523 µM	5.49	-10.4
0.123457 µM	1.29	-10.9
0.37037 µM	1.32	-11.1
1.11111 µM	6.01	-10.4
3.33333 µM	43.6	-14.8
10 µM	82.6	-17.4

CCS(=O)(=O)N1CC(CC#N)(n2cc(-c3ncnc4[nH]ccc34)cn2)C1 [baricitinib]
Details	cytotoxicity, Vero E6 [1] [%]	inhibition of SARS-CoV-2-induced cytopathic effect, Vero E6 [2] [%]
56.45 pM	-23.8	0.443
0.000169351 µM	-24.9	-0.597
0.000508053 µM	-20.2	1.73
0.00152416 µM	-17.5	0.473
0.00457247 µM	-20.6	0.0832
0.0137174 µM	-15.3	-0.169
0.0411523 µM	-17.8	-0.529
0.123457 µM	-13.4	-0.177
0.37037 µM	-9.61	0.117
1.11111 µM	-14	-1.55
3.33333 µM	-9.73	-2.06
10 µM	-10.3	-1.06

O=c1c2ccccc2[se]n1-c1ccccc1 [ebselen]
Details	cytotoxicity, Vero E6 [1] [%]	inhibition of SARS-CoV-2-induced cytopathic effect, Vero E6 [2] [%]
56.45 pM	-9.38	0.954
0.000169351 µM	-15.3	-0.438
0.000508053 µM	-9.41	-0.0732
0.00152416 µM	-4.85	-0.949
0.00457247 µM	-3.63	-0.344
0.0137174 µM	-5.61	-0.6
0.0411523 µM	-10.3	-1.57
0.123457 µM	-6.66	0.817
0.37037 µM	-2.52	0.828
1.11111 µM	-1.45	1.82
3.33333 µM	2.92	6.69
10 µM	17.6	71.3

Cc1ccc(NC(=O)c2ccc(CN3CCN(C)CC3)cc2)cc1Nc1nccc(-c2cccnc2)n1 [imatinib mesylate]
Details	cytotoxicity, Vero E6 [1] [%]	inhibition of SARS-CoV-2-induced cytopathic effect, Vero E6 [2] [%]
0.000564503 µM	4.59	0.0871
0.00169351 µM	-0.227	-0.274
0.00508053 µM	-4.57	-1.02
0.0152416 µM	-8.01	-0.646
0.0457247 µM	-4.41	-1.84
0.137174 µM	-4.39	-1.94
0.411523 µM	-6.59	-2
1.23457 µM	-4.79	1.61
3.7037 µM	-6.93	18
11.1111 µM	9.9	102
33.3333 µM	61.8	48.6
100 µM	99.785	-17.3

Cc1cccc(C)c1OCC(=O)N[C@@H](Cc1ccccc1)[C@@H](O)C[C@H](Cc1ccccc1)NC(=O)[C@H](C(C)C)N1CCCNC1=O [lopinavir]
Details	cytotoxicity, Vero E6 [1] [%]	inhibition of SARS-CoV-2-induced cytopathic effect, Vero E6 [2] [%]
0.00112901 µM	8.74	2.06
0.00338702 µM	6.74	1.04
0.0101611 µM	-8.25	1.48
0.0304832 µM	-3.94	0.483
0.0914495 µM	-7.05	1.04
0.274348 µM	-5.02	2.11
0.823045 µM	-7.06	1.91
2.46914 µM	-5.88	1.69
7.40741 µM	-25.7	2.75
22.2222 µM	25.9	72.7
66.6667 µM	99.066	-14.47
200 µM	99.504	-14.97
